Data: ChEMBL document CHEMBL1130104 (J Med Chem, 1997)

Columns and labels:
HeLa [1] = assay: Compound was tested for Anti-HIV activity by plaque reduction assay with A018-post virus in HT4-6C human CD4+ […]; format: functional, cell-based
[2] = compound was tested for 50% toxic concentration by flow cytometry after propidium iodide staining after 3 days of drug treatment in CEM lymphoblast cells.; settings: human, read-out: TC50
HeLa [3] = assay: Compound was tested for Anti-HIV activity by plaque reduction assay with E89K virus in HT4-6C human CD4+ […]; format: functional, cell-based
[4] = selectivity index expressed as TC50/EC50; EC50 values are calculated from […] cells infected with HIV-1LAI; format: functional
[5] = selectivity index = TC50/EC50. The EC50 values are calculated from CEM lymphoblast cells infected with HIV-1LAI virus.; format: functional, CCRF-CEM
HeLa [6] = assay: compound was tested for 50% toxic concentration by visual grading scale of cells after 3 days of drug treatment in HT4-6C cells.; format: functional; settings: Homo sapiens, 72 h, read-out: TC50 (the source's name)
HeLa [7] = assay: Compound was tested for Anti-HIV activity by plaque reduction assay with wild type HIV-1LAI virus in HT4-6C human CD4+ […]; format: functional, cell-based
[8] = selectivity index expressed as TC50/EC50; EC50 values are calculated from HT4-6C cells infected with HIV-1LAI virus.

Compound | EC50 (HeLa [1]) | CC50 at 72 h [2] | EC50 (HeLa [3]) | Selectivity index [4] | Selectivity index [5] | CC50 (HeLa [6]) | EC50 (HeLa [7]) | Selectivity index [8]
CCCCCCCCCCCCCCCCCCCCOC(=O)P(=O)(O)OC[C@H]1O[C@@H](n2cc(C)c(=O)[nH]c2=O)C[C@@H]1N=[N+]=[N-].N | 0.53 µM | 36 µM | 0.009 µM | 228 | 257 | 32 µM | 0.14 µM | –
CCCCCCCCCCCCCCCCCCCCCCOC(=O)P(=O)(O)OC[C@H]1O[C@@H](n2cc(C)c(=O)[nH]c2=O)C[C@@H]1N=[N+]=[N-].N | 0.77 µM | 93 µM | 0.17 µM | 1000 | 291 | 320 µM | 0.32 µM | –
CCCCCCCCCCCCCCCCCCOC(=O)P(=O)(O)OC[C@H]1O[C@@H](n2cc(C)c(=O)[nH]c2=O)C[C@@H]1N=[N+]=[N-].N | 0.3 µM | 28 µM | 0.13 µM | 100 | – | 10 µM | 0.1 µM | 280
O=C(O)P(=O)(O)O [FOSCARNET] | 65 µM | 800 µM | > 1000 µM | >7.5 | – | 1000 µM | 133 µM | 6
Cc1cn([C@H]2C[C@H](N=[N+]=[N-])[C@@H](CO)O2)c(=O)[nH]c1=O [ZIDOVUDINE] | 2.9 µM | – | 0.009 µM | – | – | – | 0.013 µM | –
